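Tested at 5 concentrations; 48 h exposure; 96-well plates; endpoints linearly interpolated, else capped at highest concentration. GI50 = concentration required for 50% inhibition of growth.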 Activity calls are given as the source filed them. No stated cut-off is given here; in the data, active = GI50 up to about 1.1 µM and inactive = higher.
Legend:
Assay in all cases: growth of human tumour cells (NCI), 48 h
SF-539 = tested on: SF-539
CCRF-CEM = tested on: CCRF-CEM
NCI-H460 = tested on: NCI-H460
HL-60 = tested on: HL-60
NCI/ADR-RES = tested on: NCI/ADR-RES
TK-10 = tested on: TK-10
OVCAR-4 = tested on: OVCAR-4
RPMI-8226 = tested on: RPMI-8226
SK-MEL-2 = tested on: SK-MEL-2
HOP-62 = tested on: HOP-62
T47D = tested on: T47D
UO-31 = tested on: UO-31
MDA-MB-435 = tested on: MDA-MB-435
BT-549 = tested on: BT-549
OVCAR-3 = tested on: OVCAR-3
LOX IMVI = tested on: LOX IMVI
U-251 = tested on: U-251
SN12C = tested on: SN12C
SW-620 = tested on: SW-620
RXF 393 = tested on: RXF 393

SMILES | GI50 (SF-539) | GI50 (CCRF-CEM) | GI50 (NCI-H460) | GI50 (HL-60) | GI50 (NCI/ADR-RES) | GI50 (TK-10) | GI50 (OVCAR-4) | GI50 (RPMI-8226) | GI50 (SK-MEL-2) | GI50 (HOP-62) | GI50 (T47D) | GI50 (UO-31) | GI50 (MDA-MB-435) | GI50 (BT-549) | GI50 (OVCAR-3) | GI50 (LOX IMVI) | GI50 (U-251) | GI50 (SN12C) | GI50 (SW-620) | GI50 (RXF 393)
COc1cccc(CCn2c(N)c(-c3ccccc3)c3ccc([N+](=O)[O-])cc3c2=O)c1 | 2.51 µM (inactive) | 11.4 µM (inactive) | 13.6 µM (inactive) | 5.47 µM (inactive) | 1.9 µM (inactive) | 2.07 µM (inactive) | 1.79 µM (inactive) | 0.499 µM (active) | 16.7 µM (inactive) | 6.56 µM (inactive) | 2.05 µM (inactive) | 9.02 µM (inactive) | 21.9 µM (inactive) | 1.61 µM (inactive) | 2.58 µM (inactive) | 2.43 µM (inactive) | 9.29 µM (inactive) | 0.664 µM (active) | 25.7 µM (inactive) | 
COc1cccc2c1-c1ccccc1[C@H](Nc1ccccc1)[C@@]2(C)O | 2.77 µM (inactive) | 1.42 µM (inactive) | 3.91 µM (inactive) | 5.42 µM (inactive) | 3.64 µM (inactive) | 8.87 µM (inactive) | 10.3 µM (inactive) |  | 6.12 µM (inactive) | 3.85 µM (inactive) | 8.85 µM (inactive) | 4.93 µM (inactive) | 1.56 µM (inactive) | 8.41 µM (inactive) | 2.7 µM (inactive) | 10.1 µM (inactive) | 4.84 µM (inactive) | 4.55 µM (inactive) | 4.35 µM (inactive) | 4.6 µM (inactive)
Cc1ccc(C(=O)c2[nH]c(Nc3cc(C)ccn3)c(C(=S)Nc3ccccc3)c2N)cc1 | > 100 µM (inactive) | > 100 µM (inactive) | > 100 µM (inactive) | > 100 µM (inactive) | > 100 µM (inactive) | > 100 µM (inactive) | > 100 µM (inactive) |  | > 100 µM (inactive) | > 100 µM (inactive) | > 100 µM (inactive) | > 100 µM (inactive) | > 100 µM (inactive) | > 100 µM (inactive) | > 100 µM (inactive) | > 100 µM (inactive) | > 100 µM (inactive) | > 100 µM (inactive) | > 100 µM (inactive) | > 100 µM (inactive)
COc1cccc(-n2nnc3c(N)nc(N)nc32)c1 | > 100 µM (inactive) | > 100 µM (inactive) | 94.4 µM (inactive) | > 100 µM (inactive) | > 100 µM (inactive) | > 100 µM (inactive) | > 100 µM (inactive) | > 100 µM (inactive) | > 100 µM (inactive) | > 100 µM (inactive) | > 100 µM (inactive) |  | > 100 µM (inactive) | > 100 µM (inactive) | > 100 µM (inactive) | > 100 µM (inactive) | > 100 µM (inactive) | > 100 µM (inactive) | > 100 µM (inactive) | 
CC1=C(\C=C/C(C)=C/C=C/C(C)=C/C=C/C=C(C)\C=C\C=C(C)/C=C/C2=C(C)CCCC2(C)C)C(C)(C)CCC1 |  | > 100 µM (inactive) | > 100 µM (inactive) |  | > 100 µM (inactive) | > 100 µM (inactive) | > 100 µM (inactive) |  | > 100 µM (inactive) | > 100 µM (inactive) | 19.5 µM (inactive) | > 100 µM (inactive) | 68.9 µM (inactive) | 64.4 µM (inactive) | > 100 µM (inactive) | > 100 µM (inactive) | 56.2 µM (inactive) | > 100 µM (inactive) | > 100 µM (inactive) | 33 µM (inactive)
COc1ccc(CNc2nc3cc(C(F)(F)F)ccc3nc2-c2ccccc2)cc1OC | 45.9 µM (inactive) | 22.6 µM (inactive) | 19.5 µM (inactive) | 34 µM (inactive) | 54.5 µM (inactive) | 53.2 µM (inactive) | 43.1 µM (inactive) |  | 68.9 µM (inactive) | 23.9 µM (inactive) | 24.3 µM (inactive) | 23.7 µM (inactive) | 25.5 µM (inactive) | 47.5 µM (inactive) | 96.8 µM (inactive) | 24.7 µM (inactive) |  | > 10 µM (inactive) | 18.5 µM (inactive) | 22.8 µM (inactive)
COc1ccc(N2C(=O)/C(=C/c3ccc(N(CCC#N)CCC#N)cc3)N=C2c2ccccc2)c(OC)c1 | 40.4 µM (inactive) | 21.9 µM (inactive) | > 100 µM (inactive) | 30.3 µM (inactive) | 52.8 µM (inactive) | > 100 µM (inactive) | > 100 µM (inactive) | 29 µM (inactive) |  |  | 27.1 µM (inactive) | > 100 µM (inactive) | > 100 µM (inactive) | > 100 µM (inactive) | 98.4 µM (inactive) |  | 48.2 µM (inactive) | > 100 µM (inactive) | > 100 µM (inactive) | 
CN1CCN(c2ccc3[nH]c(-c4ccc5[nH]c(-c6ccc(O)cc6)nc5c4)nc3c2)CC1 | 54.8 µM (inactive) |  |  | 11.9 µM (inactive) | 482 µM (inactive) | 705 µM (inactive) | 274 µM (inactive) |  | > 100 µM (inactive) | 250 µM (inactive) | 9.4 µM (inactive) | 564 µM (inactive) | 8.28 µM (inactive) | 455 µM (inactive) |  | 85.5 µM (inactive) | 179 µM (inactive) | 127 µM (inactive) | 102 µM (inactive) | 130 µM (inactive)
O=C(/C=C\c1ccc([N+](=O)[O-])cc1)c1ccccc(=O)c1O |  | < 0.0319 µM (active) | 0.518 µM (active) | 0.538 µM (active) | 0.429 µM (active) | 2.49 µM (inactive) | 2.47 µM (inactive) | 0.682 µM (active) | 1.89 µM (inactive) | 1.88 µM (inactive) | 2.67 µM (inactive) | 1.02 µM (active) | 0.989 µM (active) | 1.72 µM (inactive) | 2.49 µM (inactive) | 0.449 µM (active) | 1.01 µM (active) | 4.81 µM (inactive) | 1.3 µM (inactive) | 
COC(=O)C1Cc2ccc(C)cc2C1=O (centres undefined) | > 100 µM (inactive) | > 100 µM (inactive) | > 100 µM (inactive) | 25.8 µM (inactive) | > 100 µM (inactive) | > 100 µM (inactive) | > 100 µM (inactive) | > 100 µM (inactive) | > 100 µM (inactive) | > 100 µM (inactive) | > 100 µM (inactive) | > 100 µM (inactive) | > 100 µM (inactive) | > 100 µM (inactive) | > 100 µM (inactive) | > 100 µM (inactive) | > 100 µM (inactive) | > 100 µM (inactive) | > 100 µM (inactive) | 
C[C@@H]1OC(=O)C[C@H]2CC(=O)N(CCC3CN(C(=O)c4ccccc4)c4ccccc43)C[C@@H]21 (some centres undefined) |  |  | > 100 µM (inactive) |  | > 100 µM (inactive) | > 100 µM (inactive) | > 100 µM (inactive) | > 100 µM (inactive) | > 100 µM (inactive) | > 100 µM (inactive) | > 100 µM (inactive) | > 100 µM (inactive) | > 100 µM (inactive) | > 100 µM (inactive) | > 100 µM (inactive) |  | > 100 µM (inactive) |  | > 100 µM (inactive) | > 100 µM (inactive)

— ChEMBL document CHEMBL1201862, “PubChem BioAssay data set” (2004)
